Like-named read-outs stand apart in the source and are kept apart here.
Columns and labels:
human CB2R = molecular target: T1, human CB2R (Homo sapiens, UniProt P34972); assay: PathHunter β-arrestin recruitment assay in CHO cells; format: cell-based
T1 construct: bgal (beta-galactosidase fragment of the PathHunter system); host or cells: CHO-K1
Experimental: Assays were carried out using the PathHunter hCB2_bgal CHOK1 β-arrestin recruitment assay kit (DiscoveRx, Fremont, CA, United States) as previously described ([Soethoudt et al., 2017]). A total of 5,000 cells per well were seeded in 384-well plates (PerkinElmer, Waltham, MA, United States) containing 20 μL cell culture medium and incubated for 16–18 h at 37°C in 5% CO2. Cells were stimulated with RG7774 and incubated for 1.5 h at 37°C in 5% CO2. As the RG7774 stock solution was 100% DMSO, the final concentration of DMSO per assay point was diluted to 0.1%. PathHunter Detection mixture was used to determine β-galactosidase enzyme activity according to the manufacturer’s protocol. Detection mixture (12 µL per well) was added, and the plate was incubated for 1 h in the dark at RT. Chemiluminescence (indicated as relative light units) was measured on an EnVision multilabel plate reader (PerkinElmer, Waltham, MA, United States).

Human 12-LOX = molecular target: T2, Human 12-LOX (Homo sapiens, UniProt P18054); assay: Human 12-LOX assay; format: biochemical; settings: RG7774 10 µM; read-out: Mean ± SEM % inhibition of control, Human 12-LOX
T2 construct: human platelet-derived 12-LOX; from tissue; host or cells: human platelets
T2 sequence (P18054 whole entry): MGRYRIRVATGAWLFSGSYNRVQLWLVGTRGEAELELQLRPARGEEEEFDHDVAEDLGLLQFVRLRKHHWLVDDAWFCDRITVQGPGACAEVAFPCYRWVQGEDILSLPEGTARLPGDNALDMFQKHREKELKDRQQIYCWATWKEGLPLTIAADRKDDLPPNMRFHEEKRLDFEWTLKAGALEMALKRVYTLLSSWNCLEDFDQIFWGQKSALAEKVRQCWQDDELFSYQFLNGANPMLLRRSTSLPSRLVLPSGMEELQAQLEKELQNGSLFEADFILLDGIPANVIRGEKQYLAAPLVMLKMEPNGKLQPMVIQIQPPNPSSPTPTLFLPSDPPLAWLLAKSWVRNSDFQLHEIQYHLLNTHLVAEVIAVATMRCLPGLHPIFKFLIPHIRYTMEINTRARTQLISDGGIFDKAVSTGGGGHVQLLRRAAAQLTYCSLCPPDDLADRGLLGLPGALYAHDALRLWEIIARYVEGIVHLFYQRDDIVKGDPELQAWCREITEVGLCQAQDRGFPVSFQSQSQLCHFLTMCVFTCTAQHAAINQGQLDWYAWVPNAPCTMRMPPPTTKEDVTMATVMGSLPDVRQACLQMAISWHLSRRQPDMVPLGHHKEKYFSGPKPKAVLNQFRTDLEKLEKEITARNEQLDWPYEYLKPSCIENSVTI
Experimental: The inhibitory effects of different concentrations of RG7774 (0.1-500 µM) on the activities of human recombinant 5-LOX (Cayman Chemical Company #60402), 15-LOX (Cayman Chemical Company #10011263), and human platelet-derived 12-LOX were determined using the Biovision Lipoxygenase Activity Assay Kit (#BVN-K978-100). This kit converts the LOX substrate to an intermediate that reacted with the probe, generating a fluorescent product. The effect of RG7774 (preincubated for 15 min) at 10 µM on LOXs (5-LOX: 0.5 or 1.2 µg; 12-LOX: 20 µg; 15-LOX: 0.23 or 0.3 µg) was ascertained by adding the compounds directly to the incubation medium and the fluorescent signal, recorded at excitation/emission 500/536 nm at 30 sec intervals for 30-40 min, was directly proportional to LOX activity. […] The percentage of human 5-, 12-, and 15-LOX activity (control) was estimated from the amount of oxidized probe in the reaction using a standard curve.

Mouse DAGL = Mouse DAGL assay (brain); format: biochemical; settings: RG7774 10 µM
Experimental: Mouse brain or human HaCaT cells (CLS Cell Lines Service, GmbH, Eppelheim, Germany) were homogenized in 50 mM Tris-HCl (pH 7.4) using a glass potter, and homogenates were centrifuged at 4°C sequentially at 800 g (10 min) and 10,000 g (30 min). The final pellet (80–200 µg) was resuspended in 50 mM Tris-HCl (pH 7.4) containing 10 mM CaCl2 and incubated at 37°C for 30 min with sn-1[^14C]-stearoyl-2-arachidonoyl-glycerol (100 µM) (ARC, MO, USA). Reactions were stopped by adding chloroform/methanol (2:1, v/v), and the organic phase was dried and fractionated by thin-layer chromatography on silica gel, as previously reported. Levels of 1[^14C]-stearoyl acid radioactivity were determined by cutting the appropriate band from the gel and analyzing using a β-scintillation counter. Mouse cells were preincubated for 15 min with RG7774 (10 µM) and added to the incubation medium. Human cells were preincubated for 15 min with 8 different concentrations of RG7774 (0.1-500 µM) and added to the incubation medium. Control experiments were carried out in the presence of the selective DAGL inhibitor, D053 (10 µM).

Plasma protein binding = format: in vitro ADME; settings: read-out: PPB (fu)
Experimental: Pooled and frozen plasma from selected species were obtained from commercial suppliers (human […] and mouse […]3-C57; BioreclamationIV, NY, USA). Unbound RG7774 was identified using a 96-well, 150 μL, half-cell capacity Teflon equilibrium dialysis device with a 12–14 kDa molecular weight cut-off membrane (HT-Dialysis; Gales Ferry, CT, USA) to minimize nonspecific binding. RG7774 and positive control (diazepam) were tested with an initial total concentration of 1000 nM (cassettes of 2 to 5 test items). Equal volumes of matrix samples containing RG7774 or diazepam and blank (Soerensen) dialysis buffer were loaded into the opposite compartments of each well. Biological matrix and phosphate buffer were adjusted to pH 7.4 on the day of the experiment. The dialysis block was sealed and incubated at 37 °C in 5% CO2 for 5 h. The seal was removed and matrix and buffer from each dialysis were sampled and analyzed by LC-MS/MS. All protein binding determinations were performed in triplicate. Membrane integrity was tested in the HT-Dialysis device by determining the unbound fraction values for diazepam in each well. At equilibrium, the unbound drug concentration in the biological matrix compartment of the equilibrium dialysis apparatus is the same as the concentration of the compound in the buffer compartment. Thus, the percent unbound fraction was calculated as follows: % fraction unbound = 100 × buffer concentration after dialysis/matrix concentration after dialysis. Device recovery was checked by measuring the concentrations of compound in the matrix before dialysis and calculating the percent recovery (mass balance). Recovery ranging from 80%–120% was required for data acceptance.

hERG = hERG (Homo sapiens, UniProt Q12809); assay: hERG inhibition
Sequence of hERG (Q12809 whole entry): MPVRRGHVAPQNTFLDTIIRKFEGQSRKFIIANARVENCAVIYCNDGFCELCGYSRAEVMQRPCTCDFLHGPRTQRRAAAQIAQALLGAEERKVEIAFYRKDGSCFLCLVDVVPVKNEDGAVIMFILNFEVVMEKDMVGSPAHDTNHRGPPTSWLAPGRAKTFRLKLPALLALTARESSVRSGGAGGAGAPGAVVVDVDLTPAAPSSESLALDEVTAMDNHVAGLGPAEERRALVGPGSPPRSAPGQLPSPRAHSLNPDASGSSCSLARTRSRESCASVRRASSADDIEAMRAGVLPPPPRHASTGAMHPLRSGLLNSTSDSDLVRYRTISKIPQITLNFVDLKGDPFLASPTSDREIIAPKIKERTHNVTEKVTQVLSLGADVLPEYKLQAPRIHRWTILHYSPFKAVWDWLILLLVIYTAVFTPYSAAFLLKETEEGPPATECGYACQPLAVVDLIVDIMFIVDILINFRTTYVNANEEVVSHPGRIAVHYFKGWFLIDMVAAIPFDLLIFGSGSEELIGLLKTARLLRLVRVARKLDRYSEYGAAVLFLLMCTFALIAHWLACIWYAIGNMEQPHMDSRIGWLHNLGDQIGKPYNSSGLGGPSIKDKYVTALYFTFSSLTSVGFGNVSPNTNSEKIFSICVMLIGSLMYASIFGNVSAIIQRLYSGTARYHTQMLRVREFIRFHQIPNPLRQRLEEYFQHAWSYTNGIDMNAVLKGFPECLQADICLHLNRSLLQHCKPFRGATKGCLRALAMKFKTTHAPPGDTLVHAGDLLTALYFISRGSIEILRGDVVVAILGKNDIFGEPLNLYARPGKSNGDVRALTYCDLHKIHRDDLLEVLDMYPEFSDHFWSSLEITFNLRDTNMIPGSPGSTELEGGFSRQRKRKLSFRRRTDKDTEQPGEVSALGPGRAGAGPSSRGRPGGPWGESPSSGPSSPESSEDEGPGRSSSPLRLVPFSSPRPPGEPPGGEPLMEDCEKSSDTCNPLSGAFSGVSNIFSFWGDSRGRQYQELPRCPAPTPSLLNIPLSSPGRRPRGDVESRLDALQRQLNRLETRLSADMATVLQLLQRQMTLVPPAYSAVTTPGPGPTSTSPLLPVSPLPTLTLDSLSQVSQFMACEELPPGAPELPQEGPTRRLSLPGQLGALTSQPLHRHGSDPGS
From the text: TABLE 2 Physicochemical and ADMET profile for RG7774.

T1 sequence (P34972 whole entry, the tested form may be a part): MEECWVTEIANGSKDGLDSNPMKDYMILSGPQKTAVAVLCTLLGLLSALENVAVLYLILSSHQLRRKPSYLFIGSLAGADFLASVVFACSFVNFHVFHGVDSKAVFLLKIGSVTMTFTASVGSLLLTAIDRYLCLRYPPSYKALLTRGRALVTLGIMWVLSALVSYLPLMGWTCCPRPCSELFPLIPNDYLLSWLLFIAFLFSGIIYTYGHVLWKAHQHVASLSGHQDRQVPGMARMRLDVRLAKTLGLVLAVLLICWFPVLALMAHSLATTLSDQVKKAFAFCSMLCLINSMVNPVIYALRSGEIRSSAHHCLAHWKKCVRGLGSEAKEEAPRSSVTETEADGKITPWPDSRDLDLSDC

## Cn1nnnc1Cn1nnc2c(N3CC[C@H](O)C3)nc(C(C)(C)C)nc21 [RG7774, (S)-1-(5-tert-butyl-3-[(1-methyl-1H-tetrazol-5-yl)methyl]-3H-[1,2,3]triazolo[4,5-d]pyrimidin-7-yl)pyrrolidin-3-ol]
Human CB2R
  EC50: 99.7 ± 5.72 nM
Human 12-LOX
  inhibition at 10 µM: 1.5 ± 1.8%
Mouse DAGL
  Mean ± SEM % inhibition of control, Mouse DAGL: 17.0 ± 17.7%
Plasma protein binding; C57, pooled plasma, pH 7.4, mouse
  fraction unbound at 5 h, 1000 nM: 0.045
Plasma protein binding; pooled plasma, pH 7.4, human
  fraction unbound at 5 h, 1000 nM: 0.178
Plasma protein binding; pooled plasma, pH 7.4, rat
  fraction unbound at 5 h, 1000 nM: 0.158
hERG
  IC50: > 20000 nM

Source: article PMC11272598, “RG7774 (Vicasinabin), an orally bioavailable cannabinoid receptor 2 (CB2R) agonist, decreases retinal vascular permeability, leukocyte adhesion, and ocular inflammation in animal models” (Frontiers in Pharmacology, 2024)
